According to ChEMBL document CHEMBL1201862, “PubChem BioAssay data set” (2004):
The source made the active and inactive calls.

How the values were obtained:
[1] = molecular target: T1, High affinity choline transporter 1 (Homo sapiens, UniProt Q9GZV3); test: human choline transporter blockers, potency – cell-based, 10-point CRC, membrane potential dye, dose response (AID 588401); format: functional;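 also: membrane potential dye fluorescence of choline-evoked depolarization via CHT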
T1 sequence (Q9GZV3 whole entry): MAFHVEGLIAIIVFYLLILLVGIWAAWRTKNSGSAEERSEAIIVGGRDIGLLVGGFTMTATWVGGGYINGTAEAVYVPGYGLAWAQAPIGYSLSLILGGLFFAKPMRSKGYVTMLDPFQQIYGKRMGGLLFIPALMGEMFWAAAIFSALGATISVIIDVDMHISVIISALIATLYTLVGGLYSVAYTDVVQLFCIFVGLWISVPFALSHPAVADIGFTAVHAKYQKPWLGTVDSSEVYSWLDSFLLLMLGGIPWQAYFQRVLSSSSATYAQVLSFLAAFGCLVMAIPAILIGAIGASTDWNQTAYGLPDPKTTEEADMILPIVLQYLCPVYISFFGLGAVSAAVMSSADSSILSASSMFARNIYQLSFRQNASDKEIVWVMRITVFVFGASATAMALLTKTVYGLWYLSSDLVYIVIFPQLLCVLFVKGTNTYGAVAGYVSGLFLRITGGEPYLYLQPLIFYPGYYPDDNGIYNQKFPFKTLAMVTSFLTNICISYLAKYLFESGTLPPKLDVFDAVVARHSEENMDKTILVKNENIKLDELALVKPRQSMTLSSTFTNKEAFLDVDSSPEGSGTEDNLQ

[2] = molecular target: T1, High affinity choline transporter 1; test: human choline transporter blockers, potency – cell-based, 5-point CRC, membrane potential dye, dose response (AID 504840); format: functional
[3] = molecular target: Procathepsin L (Homo sapiens, UniProt P07711)
Procathepsin L, sequence (P07711 whole entry): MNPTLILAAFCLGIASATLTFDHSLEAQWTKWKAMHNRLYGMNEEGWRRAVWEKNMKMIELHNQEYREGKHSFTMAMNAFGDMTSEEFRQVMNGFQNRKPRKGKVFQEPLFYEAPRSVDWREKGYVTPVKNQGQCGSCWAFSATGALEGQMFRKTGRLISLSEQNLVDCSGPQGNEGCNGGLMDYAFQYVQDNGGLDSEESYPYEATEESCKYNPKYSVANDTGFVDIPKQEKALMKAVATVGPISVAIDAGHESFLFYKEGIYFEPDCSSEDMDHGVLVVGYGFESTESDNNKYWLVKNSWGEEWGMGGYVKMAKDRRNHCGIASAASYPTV

[4] = system: P388/ADR; test: cells; format: functional; conditions: Mus musculus
[5] = system: SN12K1; test: cells; format: functional; conditions: Homo sapiens
[6] = molecular target: Aspartyl aminopeptidase (Plasmodium falciparum 3D7, UniProt Q8I2J3)
Aspartyl aminopeptidase, sequence (Q8I2J3 whole entry): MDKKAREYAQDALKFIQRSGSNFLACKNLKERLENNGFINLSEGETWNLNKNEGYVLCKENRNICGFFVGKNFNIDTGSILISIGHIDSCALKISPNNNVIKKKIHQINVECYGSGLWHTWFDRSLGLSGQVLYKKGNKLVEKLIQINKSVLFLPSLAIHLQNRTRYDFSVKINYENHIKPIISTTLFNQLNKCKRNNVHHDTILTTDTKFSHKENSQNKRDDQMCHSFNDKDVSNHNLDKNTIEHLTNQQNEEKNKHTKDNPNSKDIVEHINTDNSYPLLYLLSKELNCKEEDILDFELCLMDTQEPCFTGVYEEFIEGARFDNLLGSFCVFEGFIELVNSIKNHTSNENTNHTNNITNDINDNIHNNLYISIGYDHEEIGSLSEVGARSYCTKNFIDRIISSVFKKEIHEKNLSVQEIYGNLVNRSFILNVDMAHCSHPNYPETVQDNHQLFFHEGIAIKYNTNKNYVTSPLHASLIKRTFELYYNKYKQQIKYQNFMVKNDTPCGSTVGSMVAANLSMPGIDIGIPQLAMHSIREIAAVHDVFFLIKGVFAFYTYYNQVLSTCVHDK

[7] = system: P388; test: cells; format: functional; conditions: Mus musculus
[8] = molecular target: DNA dC->dU-editing enzyme APOBEC-3A (Homo sapiens, UniProt P31941); test: SAR analysis of small molecule inhibitors of APOBEC3A DNA Deaminase via a fluorescence-based single-stranded DNA deaminase assay.; format: functional; conditions: read-out: IC50_Mean
[9] = molecular target: DNA dC->dU-editing enzyme APOBEC-3G (Homo sapiens, UniProt Q9HC16); test: inhibition of APOBEC3G ssDNA deamination – biochemical, fluorescence, single-stranded DNA substrate, SAR follow-up (AID 602136); format: functional; conditions: read-out: IC50_Mean
[10] = system: H4; test: Amyloid Precursor 5' UTR neuroblastoma cell reporter line Measured in Cell-Based System Using Plate Reader - 2078-04_Inhibitor_Dose_DryPowder_Activity. [Related pubchem assays (depositor defined):AID488894]; format: functional; conditions: Homo sapiens
[11] = molecular target: Luciferin 4-monooxygenase (Photinus pyralis, UniProt P08659); test: inhibition of purified Photinus pyralis luciferase – biochemical, dry powder samples, plate reader, dose response (AID 588451)
Luciferin 4-monooxygenase, sequence (P08659 whole entry): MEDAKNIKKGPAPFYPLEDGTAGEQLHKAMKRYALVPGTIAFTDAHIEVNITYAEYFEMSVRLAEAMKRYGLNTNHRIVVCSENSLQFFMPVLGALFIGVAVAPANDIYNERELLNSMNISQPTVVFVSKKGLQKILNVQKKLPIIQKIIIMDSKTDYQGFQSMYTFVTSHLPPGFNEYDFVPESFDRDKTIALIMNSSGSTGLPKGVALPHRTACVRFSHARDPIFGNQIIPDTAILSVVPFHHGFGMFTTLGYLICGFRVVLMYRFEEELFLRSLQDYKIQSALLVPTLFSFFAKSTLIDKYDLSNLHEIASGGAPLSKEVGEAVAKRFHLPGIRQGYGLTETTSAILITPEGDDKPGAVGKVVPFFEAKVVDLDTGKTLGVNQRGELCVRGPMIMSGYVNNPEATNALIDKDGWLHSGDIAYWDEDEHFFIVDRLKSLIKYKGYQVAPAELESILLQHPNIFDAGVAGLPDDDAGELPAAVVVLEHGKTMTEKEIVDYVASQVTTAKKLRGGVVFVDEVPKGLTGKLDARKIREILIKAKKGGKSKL

[12] = system: H4; test: inhibitors of control reporter signal in H4 cells – cell-based, plate reader, dry powder samples, counter-screen for prion reporter project, dose response (AID 540255); format: functional; conditions: Homo sapiens
[13] = reduction of Shn3 3'UTR-driven luciferase in osteoblasts – cell-based, Clone20 osteoblasts, firefly luciferase, cherry-picked, dose response (AID 624132); format: functional;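 also: firefly luciferase luminescence from reporter carrying the Shn3 3'UTR in osteoblasts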
[14] = HEK-293T viability loss after treatment – luminescence, T-cell screen hits, cytotoxicity control for TCR NF-kB inhibitor project, dose response (AID 489026); format: functional, cell-based;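 also: cells exposed to compound about 14 hours before the viability readout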
[15] = molecular target: T2, Microphthalmia-associated transcription factor (Homo sapiens, UniProt O75030); test: reducers of TRPM1 reporter luminescence, concentration series – cell-based, SK-MEL-5, cherry-picked, set 3, MITF inhibitor project, dose response (AID 493073); format: functional;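 also: SK-MEL-5 melanoma cells with luciferase driven by the MITF target TRPM1 promoter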
T2 sequence (O75030 whole entry): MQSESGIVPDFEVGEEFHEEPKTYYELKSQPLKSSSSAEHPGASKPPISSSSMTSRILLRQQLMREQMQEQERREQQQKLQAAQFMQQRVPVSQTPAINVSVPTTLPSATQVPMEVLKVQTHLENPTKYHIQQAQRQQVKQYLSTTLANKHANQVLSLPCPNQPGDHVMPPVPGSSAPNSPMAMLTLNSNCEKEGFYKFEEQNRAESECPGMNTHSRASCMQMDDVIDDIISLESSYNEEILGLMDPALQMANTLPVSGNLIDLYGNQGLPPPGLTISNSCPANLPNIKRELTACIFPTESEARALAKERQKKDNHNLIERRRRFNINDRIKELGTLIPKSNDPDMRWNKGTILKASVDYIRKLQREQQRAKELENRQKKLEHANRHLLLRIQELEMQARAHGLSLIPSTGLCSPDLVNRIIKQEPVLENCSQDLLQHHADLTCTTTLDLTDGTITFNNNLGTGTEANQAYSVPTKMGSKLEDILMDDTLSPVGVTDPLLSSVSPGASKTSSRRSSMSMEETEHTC

[16] = molecular target: T3, Heat shock factor protein 1 (Mus musculus, UniProt P38532); test: decrease of HSF1-responsive luciferase luminescence – cell-based, NIH3T3, dose retest, confirmation (AID 2382); format: functional;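 also: NIH3T3 fibroblasts with HSF1-driven luciferase reporter stressed by proteasome inhibitor MG132; luminescence from HSF1-driven luciferase expression after 8 hours of MG132 stress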
T3 sequence (P38532 whole entry): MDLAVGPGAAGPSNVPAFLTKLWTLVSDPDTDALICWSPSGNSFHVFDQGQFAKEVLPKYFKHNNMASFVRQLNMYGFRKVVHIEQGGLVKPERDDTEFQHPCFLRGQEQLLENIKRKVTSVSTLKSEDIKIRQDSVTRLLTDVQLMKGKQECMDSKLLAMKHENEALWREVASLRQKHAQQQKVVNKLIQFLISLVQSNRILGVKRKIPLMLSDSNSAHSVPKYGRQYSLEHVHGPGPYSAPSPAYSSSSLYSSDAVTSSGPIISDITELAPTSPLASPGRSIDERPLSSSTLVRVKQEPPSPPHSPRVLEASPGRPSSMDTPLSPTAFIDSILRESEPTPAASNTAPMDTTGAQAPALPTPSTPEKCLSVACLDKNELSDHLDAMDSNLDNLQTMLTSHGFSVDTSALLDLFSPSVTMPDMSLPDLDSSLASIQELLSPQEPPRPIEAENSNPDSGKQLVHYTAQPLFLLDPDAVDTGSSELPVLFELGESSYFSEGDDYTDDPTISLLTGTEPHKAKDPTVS

[17] = system: H4; test: Inhibitors of Prion Protein 5' UTR mRNA Measured in Cell-Based System Using Plate Reader - 2078-01_Inhibitor_Dose_DryPowder_Activity. [Related pubchem assays (depositor defined):AID488894]; format: functional; conditions: Homo sapiens
[18] = molecular target: Serine/threonine-protein kinase pim-3 (Homo sapiens, UniProt Q86V86); format: functional;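 also: value obtained as one member of a broad kinase panel profiling effort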
[19] = molecular target: Serine/threonine-protein kinase pim-1 (Homo sapiens, UniProt P11309); format: functional
Serine/threonine-protein kinase pim-1, sequence (P11309 whole entry): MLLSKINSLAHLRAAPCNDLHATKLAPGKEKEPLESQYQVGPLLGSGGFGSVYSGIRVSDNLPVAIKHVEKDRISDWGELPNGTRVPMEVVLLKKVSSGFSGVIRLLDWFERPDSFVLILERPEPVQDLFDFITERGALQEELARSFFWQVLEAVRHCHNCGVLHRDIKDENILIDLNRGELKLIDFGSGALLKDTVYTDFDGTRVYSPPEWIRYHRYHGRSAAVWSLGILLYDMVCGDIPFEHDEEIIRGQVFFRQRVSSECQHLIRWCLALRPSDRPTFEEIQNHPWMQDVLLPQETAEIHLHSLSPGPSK

[20] = molecular target: T4, Orexin receptor type 2 (Homo sapiens, UniProt O43614); test: Counterscreen assay for antagonists of the orexin 1 receptor (OX1R; HCRTR1): Fluorescence-based cell-based dose response assay for antagonists of the orexin 2 receptor (OX2R; HCRTR2), run by assay provider.; format: functional
T4 sequence (O43614 whole entry): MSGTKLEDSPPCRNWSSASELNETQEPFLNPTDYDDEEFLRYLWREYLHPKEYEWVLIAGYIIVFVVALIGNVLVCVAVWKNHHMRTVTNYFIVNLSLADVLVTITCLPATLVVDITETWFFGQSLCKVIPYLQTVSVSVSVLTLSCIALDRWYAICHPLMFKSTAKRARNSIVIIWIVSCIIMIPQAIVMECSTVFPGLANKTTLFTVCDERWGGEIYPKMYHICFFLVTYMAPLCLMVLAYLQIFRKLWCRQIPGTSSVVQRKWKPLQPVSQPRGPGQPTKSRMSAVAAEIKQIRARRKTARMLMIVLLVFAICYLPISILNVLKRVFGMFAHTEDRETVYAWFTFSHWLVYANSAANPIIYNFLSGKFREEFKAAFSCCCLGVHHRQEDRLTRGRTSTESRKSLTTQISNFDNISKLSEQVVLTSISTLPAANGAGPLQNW

[21] = molecular target: T4, Orexin receptor type 2; test: Counterscreen assay for antagonists of the orexin 1 receptor (OX1R; HCRTR1): Homogeneous Time Resolved Fluorescence (HTRF)-based cell-based dose response assay for antagonists of the orexin 2 receptor (OX2R; HCRTR2), run by assay provider.; format: functional
[22] = system: CHO-K1; test: (§1) Counterscreen for antagonists of the orexin 1 receptor (OX1R; HCRTR1): Homogeneous time resolved fluorescence (HTRF)-based cell-based dose response assay to identify antagonists of the parental CHO-K1 cell line. [Related pubchem assays (depositor defined):AID434989, AID435008, AID463079, AID485270, AID492963, AID492964, AID492965, AID493232, AID504699, AID504701]; format: functional; conditions: Cricetulus griseus
[23] = molecular target: T5, Orexin/Hypocretin receptor type 1 (Homo sapiens, UniProt O43613); test: (§2) Fluorescence-based cell-based high throughput dose response assay for antagonists of the orexin 1 receptor (OX1R; HCRTR1). [Related pubchem assays (depositor defined):AID434989, AID435008, AID463079, AID485270, AID492963, AID492964, AID492965, AID493232, AID504717, AID504718]; format: functional
T5 sequence (O43613 whole entry): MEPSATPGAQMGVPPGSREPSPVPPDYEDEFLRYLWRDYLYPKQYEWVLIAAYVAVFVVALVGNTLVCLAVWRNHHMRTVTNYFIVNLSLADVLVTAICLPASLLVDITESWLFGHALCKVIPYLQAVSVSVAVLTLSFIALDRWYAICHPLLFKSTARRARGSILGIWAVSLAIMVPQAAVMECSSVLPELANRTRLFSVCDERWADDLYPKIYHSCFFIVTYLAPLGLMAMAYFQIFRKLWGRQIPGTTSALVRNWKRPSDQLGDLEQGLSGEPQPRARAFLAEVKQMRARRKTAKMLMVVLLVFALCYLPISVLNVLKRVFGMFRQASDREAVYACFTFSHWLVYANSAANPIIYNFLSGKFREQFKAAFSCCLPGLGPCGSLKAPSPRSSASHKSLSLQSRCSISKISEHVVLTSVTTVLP

[24] = as §1, with “Fluorescence-based” for “Homogeneous time resolved fluorescence (HTRF)-based”, “cell-based high throughput” for “cell-based”, “CHO” for “CHO-K1”; format: functional
[25] = molecular target: T5, Orexin/Hypocretin receptor type 1; test: as §2, with “Homogeneous Time Resolved Fluorescence (HTRF)-based” for “Fluorescence-based”; format: functional
[26] = molecular target: Melanin-concentrating hormone receptor 1 (Homo sapiens, UniProt Q99705); test: Late-stage fluorescence-based counterscreen for antagonists of the G-protein coupled receptor 7 (GPR7): cell-based dose response assay to identify antagonists of the melanin-concentrating hormone receptor 1 (MCHR1) Set 5.; format: functional
[27] = molecular target: T6, Neuropeptides B/W receptor type 1 (Homo sapiens, UniProt P48145); test: human NPBW1 receptor blockade, IC50 – cell-based, fluorescence, dose response, set 5, late-stage follow-up (AID 588566); format: functional
T6 sequence (P48145 whole entry): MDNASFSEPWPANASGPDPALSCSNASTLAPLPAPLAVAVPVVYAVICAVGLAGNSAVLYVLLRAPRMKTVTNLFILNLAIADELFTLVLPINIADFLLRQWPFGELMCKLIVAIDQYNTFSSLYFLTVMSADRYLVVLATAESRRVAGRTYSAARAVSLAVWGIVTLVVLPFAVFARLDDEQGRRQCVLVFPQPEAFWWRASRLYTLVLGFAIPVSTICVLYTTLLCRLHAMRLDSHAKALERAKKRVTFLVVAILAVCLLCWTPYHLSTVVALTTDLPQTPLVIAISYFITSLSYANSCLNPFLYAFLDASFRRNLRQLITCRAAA

[28] = molecular target: Cell division cycle 7-related protein kinase (Homo sapiens, UniProt O00311); format: functional;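 also: value obtained from a kinome-wide kinase panel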
Cell division cycle 7-related protein kinase, sequence (O00311 whole entry): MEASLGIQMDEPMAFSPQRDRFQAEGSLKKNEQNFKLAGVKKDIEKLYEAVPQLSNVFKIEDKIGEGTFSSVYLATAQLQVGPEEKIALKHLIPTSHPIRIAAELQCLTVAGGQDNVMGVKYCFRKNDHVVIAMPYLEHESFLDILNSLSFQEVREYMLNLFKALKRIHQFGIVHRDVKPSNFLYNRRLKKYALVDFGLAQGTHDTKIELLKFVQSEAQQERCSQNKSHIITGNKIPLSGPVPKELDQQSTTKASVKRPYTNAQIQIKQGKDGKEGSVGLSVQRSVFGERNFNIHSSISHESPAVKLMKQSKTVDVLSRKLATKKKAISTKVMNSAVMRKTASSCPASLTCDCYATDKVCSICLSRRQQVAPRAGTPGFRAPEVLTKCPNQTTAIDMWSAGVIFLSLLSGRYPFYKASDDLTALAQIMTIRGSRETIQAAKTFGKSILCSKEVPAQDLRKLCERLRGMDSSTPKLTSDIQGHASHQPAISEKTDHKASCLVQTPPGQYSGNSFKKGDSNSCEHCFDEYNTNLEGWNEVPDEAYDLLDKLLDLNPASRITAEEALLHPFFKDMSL

[29] = molecular target: Cyclin-dependent kinase 19 (Homo sapiens, UniProt Q9BWU1); test: Navigating the Kinome. Panel member name: CDC2L6; format: functional
[30] = molecular target: 72 kDa type IV collagenase (Homo sapiens, UniProt P08253); test: Dose Response validation of uHTS RPN11 inhibitor hits using a MMP-2 Fluorescence assay.; format: functional
72 kDa type IV collagenase, sequence (P08253 whole entry): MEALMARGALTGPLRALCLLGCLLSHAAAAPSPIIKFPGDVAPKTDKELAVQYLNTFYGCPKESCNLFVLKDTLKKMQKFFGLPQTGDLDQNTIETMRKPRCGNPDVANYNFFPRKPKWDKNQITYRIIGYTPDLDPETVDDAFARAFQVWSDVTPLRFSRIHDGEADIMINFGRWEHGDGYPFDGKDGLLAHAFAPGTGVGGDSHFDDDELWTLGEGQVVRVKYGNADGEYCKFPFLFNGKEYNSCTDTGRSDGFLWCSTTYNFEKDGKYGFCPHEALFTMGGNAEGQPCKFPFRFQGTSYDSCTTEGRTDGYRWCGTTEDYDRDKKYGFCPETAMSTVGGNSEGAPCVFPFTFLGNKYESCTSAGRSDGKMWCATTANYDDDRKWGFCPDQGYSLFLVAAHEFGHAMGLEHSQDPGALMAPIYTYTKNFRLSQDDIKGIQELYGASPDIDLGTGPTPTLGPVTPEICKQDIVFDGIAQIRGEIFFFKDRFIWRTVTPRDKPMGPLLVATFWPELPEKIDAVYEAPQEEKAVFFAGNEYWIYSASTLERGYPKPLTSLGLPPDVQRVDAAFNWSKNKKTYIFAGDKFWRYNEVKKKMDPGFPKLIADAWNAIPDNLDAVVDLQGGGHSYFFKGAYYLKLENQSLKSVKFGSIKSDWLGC

[31] = molecular target: 26S proteasome non-ATPase regulatory subunit 14 (Homo sapiens, UniProt O00487); test: inhibition of proteasome subunit RPN11 – biochemical, fluorescence polarization, uHTS hits, confirmation (AID 602368); format: functional
26S proteasome non-ATPase regulatory subunit 14, sequence (O00487 whole entry): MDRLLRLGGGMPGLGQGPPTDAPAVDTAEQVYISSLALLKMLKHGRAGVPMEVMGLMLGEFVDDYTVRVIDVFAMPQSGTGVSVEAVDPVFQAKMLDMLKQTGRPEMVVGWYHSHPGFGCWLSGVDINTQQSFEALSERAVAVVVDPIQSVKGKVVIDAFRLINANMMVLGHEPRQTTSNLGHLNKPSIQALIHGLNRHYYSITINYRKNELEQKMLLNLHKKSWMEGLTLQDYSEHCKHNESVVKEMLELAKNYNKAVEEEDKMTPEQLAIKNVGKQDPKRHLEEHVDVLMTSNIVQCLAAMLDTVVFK

[32] = molecular target: Prothrombin (Bos taurus, UniProt P00735); test: thrombin protease inhibitors – biochemical, fluorescence polarization, uHTS hits, dose response (AID 602369); format: functional
[33] = molecular target: Aurora kinase B (Homo sapiens, UniProt Q96GD4); format: functional
[34] = molecular target: Serine/threonine-protein kinase 17A (Homo sapiens, UniProt Q9UEE5); format: functional
Serine/threonine-protein kinase 17A, sequence (Q9UEE5 whole entry): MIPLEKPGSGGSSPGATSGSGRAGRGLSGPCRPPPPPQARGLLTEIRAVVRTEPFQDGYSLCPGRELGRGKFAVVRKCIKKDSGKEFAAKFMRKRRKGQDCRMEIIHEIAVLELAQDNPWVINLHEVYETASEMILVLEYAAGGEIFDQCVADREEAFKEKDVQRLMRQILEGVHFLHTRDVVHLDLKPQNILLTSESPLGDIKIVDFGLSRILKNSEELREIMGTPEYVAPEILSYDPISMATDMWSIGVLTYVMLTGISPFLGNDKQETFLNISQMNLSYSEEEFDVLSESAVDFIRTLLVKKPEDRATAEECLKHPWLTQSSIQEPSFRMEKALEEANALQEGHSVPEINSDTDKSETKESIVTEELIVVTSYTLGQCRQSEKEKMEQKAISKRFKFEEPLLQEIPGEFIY

For `O=CN/C=C/c1cc(O)ccc1O` [ERBSTATIN], the IC50 [1] was 0.751 µM (active), the IC50 [2] was 4.17 µM (active) and the IC50 [3] was > 59.6 µM (not active). The GI50 [4] was 2.02 µM (inactive), the GI50 [5] was 16.2 µM (inactive) and the IC50 [6] was 3.72 µM (active). For the same molecule, the GI50 [7] was 2.1 µM (inactive).
With `Clc1cnc2[nH]c(SCc3nnc(-c4cccs4)o3)nc2c1` the IC50 [8] was > 99 µM (inactive) and the IC50 [9] was 20.6 µM (inactive).
In the case of `Cc1ccc(NC(=O)c2cc3ccccc3oc2=O)cc1S(=O)(=O)N(C)C`, the AC50 [10] is reported as 0.00125 µM (active), the AC50 [11] is reported as 0.0893 µM (active) and the AC50 [12] is reported as < 0.02 µM (active). The AC50 [13] was 1.29 µM (active), the IC50 [14] was > 80 µM (inactive) and the AC50 [15] was 0.03 µM (active). For the same molecule, the EC50 [16] was < 0.16 µM (active) and the AC50 [17] was 0.011 µM (active).
With `NC(=O)c1ccc2c(ccn2-c2cccc(Cl)c2)c1` the Ki [18] was 3.98 µM (active) and the Ki [19] was 3.98 µM (active).
For `O=C(c1cccc(N2CCNC2=O)c1)N1CCCC(Nc2cccc(F)c2)C1` (centres undefined), the IC50 [20] was > 88.8 µM (inactive), the IC50 [21] was > 50 µM (inactive) and the IC50 [22] was > 66.2 µM (inactive). For the same molecule, the IC50 [23] was 9.83 µM (active), the IC50 [24] was > 49.7 µM (inactive) and the IC50 [25] was 0.922 µM (active).
In the case of `COc1ccc(Sc2cnn(Cc3cccc4ccccc34)c(=O)c2Cl)cc1`, the IC50 [26] is reported as 18.7 µM (inactive) and the IC50 [27] is reported as 1.19 µM (active).
With `O=c1cc(-c2ccncc2)[nH]n1-c1ccc([N+](=O)[O-])cc1` the Ki [28] was 0.501 µM (active) and the Ki [29] was > 100 µM (inactive).
In the case of `Cc1ccc(-n2c(-c3ccco3)nc3nc4ccccc4nc32)cc1`, the IC50 [30] is reported as > 100 µM (inactive), the IC50 [31] is reported as 24.1 µM (active) and the IC50 [32] is reported as 69 µM (active).
For `CN(C)CC(=O)Nc1n[nH]c2cc(-c3cn(Cc4ccccc4)nn3)ccc12`, the Ki [33] was 3.16 µM (active) and the Ki [34] was 1 µM (active).
